{
  "source": "patent US11980209B2",
  "about": "“Consumables” (GIVAUDAN SA, priority 2007, dated 2024)",
  "type_in_all_cases": "in vivo, human",
  "key": {"[1]": {"tested_on": "perceived sweetness (panelists)", "assay": "Sweetness detection threshold of trilobatin in milk (Example 10)", "description": "Trilobatin was tested by 6 panelists in whole milk.\nMilk samples were 62.5 ppm, 125 ppm, 250 ppm, 500 ppm trilobatin; 1% sucrose, and 2% sucrose."}, "[2]": {"tested_on": "perceived sweet taste (sweet sensitive panelists)", "assay": "Ranking test with R-index, isointensity of 100 ppm trilobatin in water (Example 1b)", "conditions": "for R-index: critical values 35.39-64.61%", "description": "The sensory evaluation was conducted using a ranking method. Samples at ambient temperature were randomly presented in 15 ml blind aliquots (unidentifiable by panelists). Panels consisted of 15 sweet sensitive subjects and samples were presented in 2 replications over 1 session. After tasting each sample, the mouth was rinsed thoroughly with water at ambient temperature prior to tasting the next sample. Panelists were presented with 0.5%, 1%, 1.5% and 2% sucrose solutions in water and a fifth sample of 100 ppm trilobatin in water. Subjects were asked to rank the samples from low to high with respect to perceived sweet taste. R-indices were calculated for 100 ppm trilobatin versus either 0.5%, 1%, 1.5% or 2% sucrose."}, "[3]": {"tested_on": "perceived sweetness (sweet sensitive panelists)", "assay": "Sweetness detection threshold of trilobatin in yoghurt (Example 8)", "conditions": "for Sweetness of 500 ppm trilobatin sample: plain nonfat yoghurt", "description": "Trilobatin was tested by 6 sweet sensitive panelists in plain nonfat yoghurt.\nYoghurt samples were 500 ppm trilobatin, 1% sucrose, and 2% sucrose. Panelists compared the 500 ppm trilobatin sample to each sucrose sample and compared the sweetness, the results are indicated in the table below."}, "[4]": {"tested_on": "perceived sweetness (sweet sensitive panelists)", "assay": "Ranking test with R-index, sweetness of trilobatin (750 ppm) in yogurt (Example 13)", "conditions": "for R-index: critical value 37.4 to 62.6%", "description": "The sucrose concentration isointense to 750 ppm trilobatin in a plain yogurt base was determined as follows.\nSamples contained a plain yogurt base with 750 ppm trilobatin, or the same plain yogurt base with sucrose in various concentrations (0%, 0.5%, 1.0%, 1.5%, and 2.0% sucrose).\n30 ml of each yogurt sample was served cold, in random order, to 21 sweet sensitive panelists. In two replications over 1 session, panelists were asked to rank the samples from least sweet to most sweet. The data was subjected to an R-index analysis."}, "[5]": {"tested_on": "perceived sweet taste (sweet sensitive panelists)", "assay": "Ranking test, isointensity of 200 ppm trilobatin in water (Example 1c)", "description": "The sensory evaluation was conducted using the method described in example 1b. The panels consisted of 7 sweet sensitive panelists. Panelists were presented with 0.5%, 1%, and 1.5% sucrose solutions in water and a fourth sample of 200 ppm trilobatin in water. Panelists were asked to rank the samples from low to high with respect to perceived sweet taste. 200 ppm trilobatin in water was determined to be isosweet to 1% sucrose.\nThe sweetness detection threshold for individuals within the average consumer group varies from below 0.4% to 0.7% sucrose or more. All examples were performed with sweet sensitive panelists able to detect at least 0.5% sucrose or less. Extrapolating from examples 1 a, b, and c, the concentration detectable by the average consumer will therefore be higher, and the average concentration near the sweetness detection threshold of the average consumer will be about 100 to 200 ppm."}, "[6]": {"tested_on": "perceived sweetness (one panelist trained for sweetness detection)", "assay": "Paired comparison of 20-100 ppm trilobatin versus 0-1% sucrose (Example 1a)", "description": "Trilobatin (20 ppm, 60 ppm, 100 ppm) in water samples were evaluated for isointensity to sucrose solutions in a concentration of 0, 0.5 and 1% sucrose using a paired comparison method. Samples were paired and tasted left to right with rinsing (water) in between, by one panelist trained for sweetness detection.\nThe trilobatin samples were compared to either 0%, 0.5%, or 1% sucrose solutions."}, "[7]": {"tested_on": "perceived sweet taste (sweet sensitive panelists)", "assay": "Ranking test with R-index, isointensity of 100 ppm trilobatin in 7% sucrose solution (Example 2a)", "conditions": "for R-index: critical values 35.39-64.61%", "description": "The sensory evaluation was conducted using a ranking method. Samples at ambient temperature were randomly presented in 15 ml blind aliquots (unidentifiable by panelists). Panels consisted of 15 sweet sensitive subjects and samples were presented in 2 replications over 1 session. After tasting each sample, the mouth was rinsed thoroughly with water at ambient temperature prior to tasting the next sample. Panelists were presented with 7%, 8%, 9%, 10% and 11% sucrose solutions in water and a sixth sample of 100 ppm trilobatin in 7% sucrose. Subjects were asked to rank the samples from low to high with respect to perceived sweet taste. R-indices were calculated for 100 ppm trilobatin in 7% sucrose versus either 7%, 8%, 9%, 10% or 11% sucrose."}, "[8]": {"tested_on": "perceived sweetness (sweet sensitive panelists)", "assay": "Sweetness enhancement by trilobatin in cereals (Example 11)", "conditions": "tested in whole milk, vs cereal with 1% added sucrose", "description": "Trilobatin was tested by 4 sweet sensitive panelists in cereal samples (cereals from Kix, General Mills; USA). The cereal is a comparatively low sugar product and contains 3 g sucrose per 30 g cereal. Panelists tested the samples in whole milk. To the cereal samples, sucrose was topically added by spraying the corresponding amount of a 10% sucrose solution in water to give 1%. The samples were baked at 250° C. for about 15 minutes in a convection oven to dry/remove the water. Similarly, trilobatin was applied to cereal samples as a 0.1% solution in 50/50 w/w ethanol/water to give various trilobatin concentrations (100 ppm, 200 ppm, 400 ppm)."}, "[9]": {"conditions": "100 ppm trilobatin in water vs 0.5% sucrose"}, "[10]": {"conditions": "750 ppm TL in plain yogurt vs 0% sucrose yogurt"}, "[11]": {"conditions": "750 ppm TL in plain yogurt vs 0.5% sucrose yogurt"}, "[12]": {"conditions": "750 ppm TL in plain yogurt vs 1% sucrose yogurt"}, "[13]": {"conditions": "750 ppm TL in plain yogurt vs 1.5% sucrose yogurt"}, "[14]": {"conditions": "750 ppm TL in plain yogurt vs 2% sucrose yogurt"}, "[15]": {"conditions": "100 ppm trilobatin in 7% sucrose"}},
  "note": "“Also recorded” adds a separate entry of the source.",
  "data": [
    {"compound": "O=C(CCc1ccc(O)cc1)c1c(O)cc(O[C@@H]2O[C@H](CO)[C@@H](O)[C@H](O)[C@H]2O)cc1O", "note": "[trilobatin, 1-[4-(beta-D-glucopyranosyloxy)-2,6-dihydroxyphenyl]-3-(4-hydroxyphenyl)-1-propanone]", "values": [
      {"measurement": "Trilobatin sample sweetness compared to sucrose", "setting": "[1]; 62.5 ppm in whole milk, 6/6 panelists", "value": "below 1% sucrose (6/6)"},
      {"measurement": "Trilobatin sample sweetness compared to sucrose", "setting": "[1]; 125 ppm in whole milk, 6/6 panelists", "value": "below 1% sucrose (6/6)"},
      {"measurement": "Trilobatin sample sweetness compared to sucrose", "setting": "[1]; 250 ppm in whole milk, 6/6 panelists", "value": "below 1% sucrose (6/6)"},
      {"measurement": "Trilobatin sample sweetness compared to sucrose", "setting": "[1]; 500 ppm in whole milk, 3/6 panelists (below)", "value": "below 1% sucrose (3/6)"},
      {"measurement": "sample sweetness (trilobatin, 100 ppm)", "setting": "[2]; 100 ppm in water vs 0.5% sucrose solution", "value": "Isosweet"},
      {"measurement": "sample sweetness (trilobatin, 100 ppm)", "setting": "[2]; 100 ppm in water vs 1.0% sucrose solution", "value": "Less sweet"},
      {"measurement": "sample sweetness (trilobatin, 100 ppm)", "setting": "[2]; 100 ppm in water vs 1.5% sucrose solution", "value": "Less sweet"},
      {"measurement": "sample sweetness (trilobatin, 100 ppm)", "setting": "[2]; 100 ppm in water vs 2.0% sucrose solution", "value": "Less sweet"},
      {"measurement": "isointensity to sucrose", "setting": "[2]; 100 ppm trilobatin in water", "value": 0.5, "unit": "% sucrose"},
      {"measurement": "R-index", "setting": "[2]; [9]", "value": 44, "unit": "%"},
      {"measurement": "R-index", "setting": "[2]; 100 ppm trilobatin in water vs 1.0% sucrose", "value": 13, "unit": "%"},
      {"measurement": "R-index", "setting": "[2]; 100 ppm trilobatin in water vs 1.5% sucrose", "value": 0, "unit": "%"},
      {"measurement": "R-index", "setting": "[2]; 100 ppm trilobatin in water vs 2.0% sucrose", "value": 0, "unit": "%"},
      {"measurement": "own sweetness equivalent to sucrose", "setting": "[3]; 500 ppm trilobatin in yoghurt", "value": 1, "unit": "% sucrose"},
      {"measurement": "Sweetness of 500 ppm trilobatin sample", "setting": "[3]; vs 1% sucrose yoghurt sample", "value": "slightly less sweet/similarly sweet"},
      {"measurement": "Sweetness of 500 ppm trilobatin sample", "setting": "[3]; vs 2% sucrose yoghurt sample", "value": "less sweet"},
      {"measurement": "sweetness TL sample", "setting": "[4]; [10]", "value": "sweeter"},
      {"measurement": "R-index", "setting": "[4]; [10]", "value": 82.6, "unit": "%"},
      {"measurement": "sweetness TL sample", "setting": "[4]; [11]", "value": "isosweet"},
      {"measurement": "R-index", "setting": "[4]; [11]", "value": 58.5, "unit": "%"},
      {"measurement": "sweetness TL sample", "setting": "[4]; [12]", "value": "less"},
      {"measurement": "R-index", "setting": "[4]; [12]", "value": 14.7, "unit": "%"},
      {"measurement": "sweetness TL sample", "setting": "[4]; [13]", "value": "less"},
      {"measurement": "R-index", "setting": "[4]; [13]", "value": 4.4, "unit": "%"},
      {"measurement": "sweetness TL sample", "setting": "[4]; [14]", "value": "less"},
      {"measurement": "R-index", "setting": "[4]; [14]", "value": 3.3, "unit": "%"},
      {"measurement": "isointensity to sucrose", "setting": "[4]; 750 ppm trilobatin in plain yogurt", "value": 0.5, "unit": "% sucrose"},
      {"measurement": "isointensity to sucrose", "setting": "[5]; 200 ppm trilobatin in water", "value": 1, "unit": "% sucrose"},
      {"measurement": "average concentration near the sweetness detection threshold of the average consumer", "setting": "[5]; extrapolating from examples 1a, b and c", "value": "100 to 200", "unit": "ppm"},
      {"measurement": "Taste of trilobatin samples compared to sucrose", "setting": "[6]; 20 ppm trilobatin in water vs 0% sucrose", "value": "isosweet"},
      {"measurement": "Taste of trilobatin samples compared to sucrose", "setting": "[6]; 20 ppm trilobatin in water vs 0.5% sucrose", "value": "notably less sweet"},
      {"measurement": "isointensity to sucrose, by interpolation", "setting": "[6]; 60 ppm trilobatin in water", "value": 0.25, "unit": "% sucrose"},
      {"measurement": "Taste of trilobatin samples compared to sucrose", "setting": "[6]; 60 ppm trilobatin in water vs 0% sucrose", "value": "weakly sweeter"},
      {"measurement": "Taste of trilobatin samples compared to sucrose", "setting": "[6]; 60 ppm trilobatin in water vs 0.5% sucrose", "value": "less sweet"},
      {"measurement": "Taste of trilobatin samples compared to sucrose", "setting": "[6]; 100 ppm trilobatin in water vs 0% sucrose", "value": "sweeter"},
      {"measurement": "Taste of trilobatin samples compared to sucrose", "setting": "[6]; [9]", "value": "isosweet"},
      {"measurement": "Taste of trilobatin samples compared to sucrose", "setting": "[6]; 100 ppm trilobatin in water vs 1% sucrose", "value": "less sweet"},
      {"measurement": "added sucrose sweetness intensity", "setting": "[7]; [15]", "value": 1, "unit": "° Brix"},
      {"measurement": "expected isointensity to sucrose assuming a merely additive effect", "setting": "[7]; [15]", "value": 7.5, "unit": "% sucrose"},
      {"measurement": "isointensity to sucrose", "setting": "[7]; [15]", "value": 8, "unit": "% sucrose"},
      {"measurement": "R-index", "setting": "[7]; 100 ppm trilobatin in 7% sucrose vs 7% sucrose", "value": 79, "unit": "%"},
      {"measurement": "R-index", "setting": "[7]; 100 ppm trilobatin in 7% sucrose vs 8% sucrose", "value": 38, "unit": "%"},
      {"measurement": "R-index", "setting": "[7]; 100 ppm trilobatin in 7% sucrose vs 9% sucrose", "value": 12, "unit": "%"},
      {"measurement": "R-index", "setting": "[7]; 100 ppm trilobatin in 7% sucrose vs 10% sucrose", "value": 1, "unit": "%"},
      {"measurement": "R-index", "setting": "[7]; 100 ppm trilobatin in 7% sucrose vs 11% sucrose", "value": 0, "unit": "%"},
      {"measurement": "sample sweetness (7% sucrose + 100 ppm trilobatin)", "setting": "[7]; vs 7% sucrose solution", "value": "Sweeter"},
      {"measurement": "sample sweetness (7% sucrose + 100 ppm trilobatin)", "setting": "[7]; vs 8% sucrose solution", "value": "Isosweet"},
      {"measurement": "sample sweetness (7% sucrose + 100 ppm trilobatin)", "setting": "[7]; vs 9% sucrose solution", "value": "Less sweet"},
      {"measurement": "sample sweetness (7% sucrose + 100 ppm trilobatin)", "setting": "[7]; vs 10% sucrose solution", "value": "Less sweet"},
      {"measurement": "sample sweetness (7% sucrose + 100 ppm trilobatin)", "setting": "[7]; vs 11% sucrose solution", "value": "Less sweet"},
      {"measurement": "Sweetness trilobatin sample", "setting": "[8]; 100 ppm trilobatin on cereal", "value": "less sweet than 1% sucrose"},
      {"measurement": "Sweetness trilobatin sample", "setting": "[8]; 200 ppm trilobatin on cereal", "value": "sweeter than 1% sucrose"},
      {"measurement": "Sweetness trilobatin sample", "setting": "[8]; 400 ppm trilobatin on cereal", "value": "much sweeter than 1% sucrose,; also recorded: too sweet"}
    ]}
  ]
}
